{"source": "paper PMC5218480", "about": "(PLoS ONE, 2017)", "tested_on": "MV-4-11 cells", "assay": "Gene expression microarray analysis (Affymetrix PrimeView) and GSEA", "assay_type": "cell-based, human", "design": "RFU PODN (11730768_x_at) / Fold change /veh PODN (11730768_x_at) / RFU LINC00158 (11744669_a_at) / Fold change /veh LINC00158 (11744669_a_at) / RFU DUSP10 (11751237_a_at) / Fold change /veh DUSP10 (11751237_a_at) / RFU ID3 (11757404_x_at) / Fold change /veh ID3 (11757404_x_at) / RFU PLEKHG5 (11737974_s_at) / Fold change /veh PLEKHG5 (11737974_s_at) / RFU LRRC4B (11730491_at) / Fold change /veh LRRC4B (11730491_at) / RFU GIMAP4 (11747438_a_at) / Fold change /veh GIMAP4 (11747438_a_at) / RFU KRT8 (11758183_x_at) / Fold change /veh KRT8 (11758183_x_at) / RFU CNN1 (11734310_a_at) / Fold change /veh CNN1 (11734310_a_at) / RFU VPS37D (11726825_at) / Fold change /veh VPS37D (11726825_at) / RFU C10orf10 (11716522_x_at) / Fold change /veh C10orf10 (11716522_x_at) / RFU KIR2DL2 /// KIR2DL4 /// KIR2DL5A /// KIR2DL5B /// KIR2DS1 /// KIR2DS2 /// KIR2DS3 /// KIR2DS4 /// KIR3DL3 /// KIR3DL3 /// KIR3DS1 (11738374_at) / Fold change /veh KIR2DL2 /// KIR2DL4 /// KIR2DL5A /// KIR2DL5B /// KIR2DS1 /// KIR2DS2 /// KIR2DS3 /// KIR2DS4 /// KIR3DL3 /// KIR3DL3 /// KIR3DS1 (11738374_at) / RFU C1QL1 (11718748_at) / Fold change /veh C1QL1 (11718748_at) / RFU TMPRSS4 (11747572_a_at) / Fold change /veh TMPRSS4 (11747572_a_at) / RFU HAMP (11756126_x_at) / Fold change /veh HAMP (11756126_x_at) / RFU RNFT2 (11725882_a_at) / Fold change /veh RNFT2 (11725882_a_at) / RFU NR4A2 (11747474_a_at) / Fold change /veh NR4A2 (11747474_a_at) / RFU ABCC12 (11746883_a_at) / Fold change /veh ABCC12 (11746883_a_at) / RFU TMEM136 (11760407_x_at) / Fold change /veh TMEM136 (11760407_x_at) / RFU CLDN22 /// WWC2 (11732394_at) / Fold change /veh CLDN22 /// WWC2 (11732394_at) / RFU HLA-DPB1 (11760878_x_at) / Fold change /veh HLA-DPB1 (11760878_x_at) / RFU SPINT1 (11716480_a_at) / Fold change /veh SPINT1 (11716480_a_at) / RFU GAP43 (11754022_s_at) / Fold change /veh GAP43 (11754022_s_at) / RFU A4GNT (11735810_at) / Fold change /veh A4GNT (11735810_at) / RFU PRB3 (11715151_x_at) / Fold change /veh PRB3 (11715151_x_at) / RFU TUBB4B (11761932_at) / Fold change /veh TUBB4B (11761932_at) / RFU CAPN14 (11732068_a_at) / Fold change /veh CAPN14 (11732068_a_at) / RFU TMCC2 (11721928_a_at) / Fold change /veh TMCC2 (11721928_a_at) / RFU IRGQ (11745062_a_at) / Fold change /veh IRGQ (11745062_a_at) / RFU FAM174B (11720279_a_at) / Fold change /veh FAM174B (11720279_a_at) / RFU TMPRSS4 (11748680_a_at) / Fold change /veh TMPRSS4 (11748680_a_at) / RFU FAM212B (11763350_a_at) / Fold change /veh FAM212B (11763350_a_at) / RFU PLEKHG5 (11743358_a_at) / Fold change /veh PLEKHG5 (11743358_a_at) / RFU ZSCAN30 (11745921_a_at) / Fold change /veh ZSCAN30 (11745921_a_at) / RFU CMKLR1 (11741424_a_at) / Fold change /veh CMKLR1 (11741424_a_at) / RFU LOC101060620 /// MAPK8IP1 (11723275_at) / Fold change /veh LOC101060620 /// MAPK8IP1 (11723275_at) / RFU SPTSSB (11747773_x_at) / Fold change /veh SPTSSB (11747773_x_at) / RFU PRSS12 (11739890_at) / Fold change /veh PRSS12 (11739890_at) / RFU BIN1 (11741810_x_at) / Fold change /veh BIN1 (11741810_x_at) / RFU WNT11 (11732464_a_at) / Fold change /veh WNT11 (11732464_a_at) / RFU C10orf10 (11716521_a_at) / Fold change /veh C10orf10 (11716521_a_at) / RFU C5orf56 (11738089_at) / Fold change /veh C5orf56 (11738089_at) / RFU CYB561 (11721691_x_at) / Fold change /veh CYB561 (11721691_x_at) / RFU ANKRD19P (11752326_a_at) / Fold change /veh ANKRD19P (11752326_a_at) / RFU OR2T12 /// OR2T33 /// OR2T8 (11738714_s_at) / Fold change /veh OR2T12 /// OR2T33 /// OR2T8 (11738714_s_at) / RFU VCAN (11748164_a_at) / Fold change /veh VCAN (11748164_a_at) / RFU JSRP1 (11732532_at) / Fold change /veh JSRP1 (11732532_at) / RFU KRTAP10-11 (11738290_x_at) / Fold change /veh KRTAP10-11 (11738290_x_at) / RFU MYO3A (11730013_a_at) / Fold change /veh MYO3A (11730013_a_at) / RFU EBF3 (11725865_a_at) / Fold change /veh EBF3 (11725865_a_at) / RFU CAMK2N1 (11719241_x_at) / Fold change /veh CAMK2N1 (11719241_x_at) / RFU C5orf56 (11738088_a_at) / Fold change /veh C5orf56 (11738088_a_at) / RFU OLFML3 (11715873_a_at) / Fold change /veh OLFML3 (11715873_a_at) / RFU LOC100653217 /// NTM (11731650_a_at) / Fold change /veh LOC100653217 /// NTM (11731650_a_at) / RFU MAPK11 (11762145_a_at) / Fold change /veh MAPK11 (11762145_a_at) / RFU FIZ1 (11724087_x_at) / Fold change /veh FIZ1 (11724087_x_at) / RFU OASL (11726364_x_at) / Fold change /veh OASL (11726364_x_at) / RFU SOX15 (11748057_x_at) / Fold change /veh SOX15 (11748057_x_at) / RFU CD79A (11719716_a_at) / Fold change /veh CD79A (11719716_a_at) / RFU HIST1H1D (11736915_at) / Fold change /veh HIST1H1D (11736915_at) / RFU CASKIN2 (11723855_a_at) / Fold change /veh CASKIN2 (11723855_a_at) / RFU LOC730098 (11760151_x_at) / Fold change /veh LOC730098 (11760151_x_at) / RFU OR4N2 (11742367_at) / Fold change /veh OR4N2 (11742367_at) / RFU PRRT2 (11749266_a_at) / Fold change /veh PRRT2 (11749266_a_at) / RFU SNX32 (11753110_a_at) / Fold change /veh SNX32 (11753110_a_at) / RFU CDHR5 (11726645_a_at) / Fold change /veh CDHR5 (11726645_a_at) / RFU RCAN1 (11760418_a_at) / Fold change /veh RCAN1 (11760418_a_at) / RFU FAM167A (11723789_a_at) / Fold change /veh FAM167A (11723789_a_at) / RFU FAM26E (11764081_at) / Fold change /veh FAM26E (11764081_at) / RFU ISYNA1 (11749810_s_at) / Fold change /veh ISYNA1 (11749810_s_at) / RFU ACY1 (11761880_at) / Fold change /veh ACY1 (11761880_at) / RFU 11764098_at / Fold change /veh 11764098_at / RFU SAMD14 (11745864_x_at) / Fold change /veh SAMD14 (11745864_x_at) / RFU NPB (11741838_a_at) / Fold change /veh NPB (11741838_a_at) / RFU TMPRSS6 (11731388_a_at) / Fold change /veh TMPRSS6 (11731388_a_at) / RFU KRTAP10-2 (11738614_at) / Fold change /veh KRTAP10-2 (11738614_at) / RFU ARHGAP8 /// PRR5-ARHGAP8 (11727945_x_at) / Fold change /veh ARHGAP8 /// PRR5-ARHGAP8 (11727945_x_at) / RFU KRTAP5-7 /// NADSYN1 (11734609_at) / Fold change /veh KRTAP5-7 /// NADSYN1 (11734609_at) / RFU RASL12 (11751679_a_at) / Fold change /veh RASL12 (11751679_a_at) / RFU CDKN2B (11736163_a_at) / Fold change /veh CDKN2B (11736163_a_at) / RFU PRF1 (11729649_at) / Fold change /veh PRF1 (11729649_at) / RFU, ZNF638 /// ZNF638-IT1 / Fold change vs veh, ZNF638 /// ZNF638-IT1 / RFU, PANK3 / Fold change vs veh, PANK3 / RFU, SH3YL1 / Fold change vs veh, SH3YL1 / RFU, ZEB2 / Fold change vs veh, ZEB2 / RFU, NRIP1 / Fold change vs veh, NRIP1 / RFU, PTTG1IP / Fold change vs veh, PTTG1IP / RFU, CAPN2 / Fold change vs veh, CAPN2 / RFU, MED14 / Fold change vs veh, MED14 / RFU, SNORA58 / Fold change vs veh, SNORA58 / RFU, C1orf63 / Fold change vs veh, C1orf63 / RFU, LRRFIP1 / Fold change vs veh, LRRFIP1 / RFU, NDUFAF7 / Fold change vs veh, NDUFAF7 / RFU, SLC12A2 / Fold change vs veh, SLC12A2 / RFU, IBTK / Fold change vs veh, IBTK / RFU, ESF1 / Fold change vs veh, ESF1 / Fold change vs veh, TMEM50B / RFU, TAOK1 / Fold change vs veh, TAOK1 / RFU, ACBD3 / Fold change vs veh, ACBD3 / RFU, TMA16 / Fold change vs veh, TMA16 / RFU, RWDD3 / Fold change vs veh, RWDD3 / RFU, BCAT1 / Fold change vs veh, BCAT1 / RFU, EDEM3 / Fold change vs veh, EDEM3 / RFU, TMEM33 / Fold change vs veh, TMEM33 / RFU, WDR75 / Fold change vs veh, WDR75 / RFU, AHCTF1 / Fold change vs veh, AHCTF1 / RFU, TFRC / Fold change vs veh, TFRC / RFU, ZDHHC17 / Fold change vs veh, ZDHHC17 / RFU, NOM1 / Fold change vs veh, NOM1 / RFU, ARL8B / Fold change vs veh, ARL8B / RFU, ZBTB11 / Fold change vs veh, ZBTB11 / RFU, TAMM41 / Fold change vs veh, TAMM41 / RFU, KIAA1704 /// LOC100996395 / Fold change vs veh, KIAA1704 /// LOC100996395 / RFU, ING1 / Fold change vs veh, ING1 / RFU, TRMT61B / Fold change vs veh, TRMT61B / RFU, FUBP3 / Fold change vs veh, FUBP3 / RFU, TP53 / Fold change vs veh, TP53 / RFU, TNKS2 / Fold change vs veh, TNKS2 / RFU, ZFP14 / Fold change vs veh, ZFP14 / RFU, ACTR2 / Fold change vs veh, ACTR2 / RFU, PPP3R1 / Fold change vs veh, PPP3R1 / RFU, PIK3R1 / Fold change vs veh, PIK3R1 / RFU, HNRNPA1 / Fold change vs veh, HNRNPA1 / RFU, RNF170 / Fold change vs veh, RNF170 / RFU, ZNF28 / Fold change vs veh, ZNF28 / RFU, RNGTT / Fold change vs veh, RNGTT / RFU, OGT / Fold change vs veh, OGT / RFU, BRD1 / Fold change vs veh, BRD1 / RFU, MARS / Fold change vs veh, MARS / RFU, ZNF655 / Fold change vs veh, ZNF655 / RFU, FAHD1 / Fold change vs veh, FAHD1 / RFU, BDP1 / Fold change vs veh, BDP1 / RFU, LRRCC1 / Fold change vs veh, LRRCC1 / RFU, ARID1A / Fold change vs veh, ARID1A / RFU, ZNF146 / Fold change vs veh, ZNF146 / RFU, ZNF330 / Fold change vs veh, ZNF330 / RFU, GPN3 / Fold change vs veh, GPN3 / RFU, C9orf123 / Fold change vs veh, C9orf123 / RFU, N4BP2L2 / Fold change vs veh, N4BP2L2 / RFU, ARFIP1 / Fold change vs veh, ARFIP1 / RFU, FAM179B / Fold change vs veh, FAM179B / RFU, BCL10 / Fold change vs veh, BCL10 / RFU, UHRF1BP1L / Fold change vs veh, UHRF1BP1L / RFU, BET1 / Fold change vs veh, BET1 / RFU, CNOT2 / Fold change vs veh, CNOT2 / RFU, ZNF268 / Fold change vs veh, ZNF268 / Fold change vs veh, ZNF507 / RFU, DGCR2 / Fold change vs veh, DGCR2 / RFU, WDSUB1 / Fold change vs veh, WDSUB1 / Fold change vs veh, HSP90B1 /// MIR3652 / RFU, ADSS / Fold change vs veh, ADSS / RFU, GK / Fold change vs veh, GK / RFU, ZNF148 / Fold change vs veh, ZNF148 / RFU, TAF9 / Fold change vs veh, TAF9 / RFU, SLC1A5 / Fold change vs veh, SLC1A5 / RFU, SLMO2 / Fold change vs veh, SLMO2 / RFU, ABCC4 / Fold change vs veh, ABCC4 / RFU, LOC101060439 /// RAP1B / Fold change vs veh, LOC101060439 /// RAP1B / RFU, RFX7 / Fold change vs veh, RFX7 / RFU, GTPBP10 / Fold change vs veh, GTPBP10 / RFU, CNEP1R1 / Fold change vs veh, CNEP1R1 / RFU, BIVM-ERCC5 /// ERCC5 / Fold change vs veh, BIVM-ERCC5 /// ERCC5 / RFU, ILF3 / Fold change vs veh, ILF3 / RFU 11762660_at / Fold change /veh 11762660_at / RFU VCAN (11757783_s_at) / Fold change /veh VCAN (11757783_s_at) / RFU DDX43 (11728927_at) / Fold change /veh DDX43 (11728927_at) / RFU KRT8 (11758188_x_at) / Fold change /veh KRT8 (11758188_x_at) / RFU NKD1 (11759106_at) / Fold change /veh NKD1 (11759106_at) / RFU SRD5A1 (11742802_a_at) / Fold change /veh SRD5A1 (11742802_a_at) / RFU TPSAB1 /// TPSB2 (11721975_s_at) / Fold change /veh TPSAB1 /// TPSB2 (11721975_s_at) / RFU GSTM3 (11746129_a_at) / Fold change /veh GSTM3 (11746129_a_at) / RFU IL23R (11737362_x_at) / Fold change /veh IL23R (11737362_x_at) / RFU TMEM51 (11727254_a_at) / Fold change /veh TMEM51 (11727254_a_at) / RFU PIWIL2 (11732686_x_at) / Fold change /veh PIWIL2 (11732686_x_at) / RFU ORM1 (11744905_x_at) / Fold change /veh ORM1 (11744905_x_at) / RFU CCDC152 (11743942_at) / Fold change /veh CCDC152 (11743942_at) / RFU ECM1 (11717891_a_at) / Fold change /veh ECM1 (11717891_a_at) / RFU IL23R (11748794_a_at) / Fold change /veh IL23R (11748794_a_at) / RFU TNFAIP8L3 (11732012_x_at) / Fold change /veh TNFAIP8L3 (11732012_x_at) / RFU MBOAT4 (11741988_at) / Fold change /veh MBOAT4 (11741988_at) / RFU 11764193_at / Fold change /veh 11764193_at / RFU TMEM53 (11763286_at) / Fold change /veh TMEM53 (11763286_at) / RFU MAGEB2 (11727129_at) / Fold change /veh MAGEB2 (11727129_at) / RFU TMEM200A (11744735_a_at) / Fold change /veh TMEM200A (11744735_a_at) / RFU CCDC152 (11751479_a_at) / Fold change /veh CCDC152 (11751479_a_at) / RFU FAM211A (11726209_a_at) / Fold change /veh FAM211A (11726209_a_at) / RFU RGS16 (11746705_a_at) / Fold change /veh RGS16 (11746705_a_at) / RFU VCAN (11755009_s_at) / Fold change /veh VCAN (11755009_s_at) / RFU RHOB (11743442_s_at) / Fold change /veh RHOB (11743442_s_at) / RFU RGS16 (11720943_a_at) / Fold change /veh RGS16 (11720943_a_at) / RFU RGS16 (11720944_at) / Fold change /veh RGS16 (11720944_at) / RFU, VPS4B / Fold change vs veh, VPS4B / RFU, CREB1 / Fold change vs veh, CREB1 / RFU, DNAJC13 / Fold change vs veh, DNAJC13 / RFU, GNAQ / Fold change vs veh, GNAQ / RFU, CDK5R1 / Fold change vs veh, CDK5R1 / RFU, ZRANB3 / Fold change vs veh, ZRANB3 / RFU, CUL4A / Fold change vs veh, CUL4A / RFU, CCNY / Fold change vs veh, CCNY / RFU, UFL1 / Fold change vs veh, UFL1 / RFU, COG3 / Fold change vs veh, COG3 / RFU, DIAPH2 / Fold change vs veh, DIAPH2 / RFU, SKA2 / Fold change vs veh, SKA2 / RFU, AFF3 / Fold change vs veh, AFF3 / RFU, LMF1 / Fold change vs veh, LMF1 / RFU, IPO11 / Fold change vs veh, IPO11 / RFU, DFFB / Fold change vs veh, DFFB / RFU, FOXP1 / Fold change vs veh, FOXP1 / RFU, CARD8 / Fold change vs veh, CARD8 / RFU, STRN3 / Fold change vs veh, STRN3 / RFU, ADK / Fold change vs veh, ADK / RFU, RASSF2 / Fold change vs veh, RASSF2 / RFU, WIPF1 / Fold change vs veh, WIPF1 / RFU, LARP1B / Fold change vs veh, LARP1B / RFU, RASA1 / Fold change vs veh, RASA1 / RFU, RB1 / Fold change vs veh, RB1 / RFU, PPFIA1 / Fold change vs veh, PPFIA1 / RFU, MAT2A / Fold change vs veh, MAT2A / RFU, CCT5 / Fold change vs veh, CCT5 / RFU, WDR92 / Fold change vs veh, WDR92 / RFU, CUX1 / Fold change vs veh, CUX1 / RFU, TTC7A / Fold change vs veh, TTC7A / RFU, TMEM135 / Fold change vs veh, TMEM135 / RFU, DEPTOR / Fold change vs veh, DEPTOR / RFU, CPM / Fold change vs veh, CPM / RFU, DNAJB6 / Fold change vs veh, DNAJB6 / RFU, CACNA2D3 / Fold change vs veh, CACNA2D3 / RFU, DTX4 / Fold change vs veh, DTX4 / RFU, TFCP2 / Fold change vs veh, TFCP2 / RFU, GMCL1 /// GMCL1P1 / Fold change vs veh, GMCL1 /// GMCL1P1 / RFU, AEBP2 / Fold change vs veh, AEBP2 / RFU, SNHG1 /// SNORD22 /// SNORD25 /// SNORD26 /// SNORD27 /// SNORD28 /// SNORD29 /// SNORD31 / Fold change vs veh, SNHG1 /// SNORD22 /// SNORD25 /// SNORD26 /// SNORD27 /// SNORD28 /// SNORD29 /// SNORD31 / Fold change (Aza/veh), C12orf56 (ProbeSet 11735607_a_at) / Fold change (ACY-1035/veh), C12orf56 (ProbeSet 11735607_a_at) / Fold change (Aza/veh), FGFR1OP (ProbeSet 11751329_s_at) / Fold change (ACY-1035/veh), FGFR1OP (ProbeSet 11751329_s_at) / Fold change (Aza/veh), VPS36 (ProbeSet 11739960_a_at) / Fold change (ACY-1035/veh), VPS36 (ProbeSet 11739960_a_at) / RFU SYPL1 (11715823_x_at) / Fold change /veh SYPL1 (11715823_x_at) / RFU IGFBP7 (11715501_s_at) / Fold change /veh IGFBP7 (11715501_s_at) / RFU REEP3 (11722064_at) / Fold change /veh REEP3 (11722064_at) / RFU IGLL1 (11728026_x_at) / Fold change /veh IGLL1 (11728026_x_at): dose or concentration left out as unconfirmed", "conditions": "MV-4-11 cells, 48 hours"}
{"smiles": "Nc1ncn([C@@H]2O[C@H](CO)[C@@H](O)[C@H]2O)c(=O)n1", "note": "[azacitidine]", "values": [{"measurement": "RFU C5orf56 (11738089_at)", "result": 11.14, "unit": "RFU"}]}
